From patent publication US20110160147A1, “NOVEL DUAL TARGETING A[…]” (priority 2008, published 2011) come the findings set out here.

Data set [1] relates to PC3 prostate ca. xenografted in CD1 nude mice. Put plainly: Antimetastatic activity on bone metastases induced by intracardiac injection of PC3 human prostate carcinoma. It is filed as in vivo. As for the experimental part:
Male CD1 nude mice were anesthetized by 4 ml/kg of a mixture (xylazine:ketavet 100) given i.p. PC3 tumour cells were inoculated by intracardiac injection (1×10^5 cells/0.1 ml/mouse) into the heart left ventricle of mice using a 27-gauge needle. Mice were subdivided (11 mice/group) in the following experimental groups and after three days from tumour injection the molecules were administered as described:
Vehicle (DMSO 10%) i.v. q4d×4.
To evaluate the antitumour activity of the drug, high-resolution total body radiological analysis was carried out by using Faxitron system. Radiological analysis was carried out 30 days after tumour injection. Body weight recordings were carried out through the study and mortality was noted.

In the next data set the target is αvβ3 receptor (Homo sapiens, UniProt P05106+P06756). Description: Solid-phase binding assay, inhibition of [125I]Echistatin binding to αvβ3 receptor. As for the experimental part: (§1) The receptor binding assays were performed as described (Orlando R. A., et al., J. Biol. Chem. 1991, 266, 19543). αvβ3 and αvβ5 were diluted to 500 ng/ml and 1 μg/ml, respectively, in coating buffer (20 mM Tris, pH 7.4, 150 mM NaCl, 2 mM CaCl2, 1 mM MgCl2, 1 mM MnCl2) and an aliquot of 100 μL was added to a 96-well microtiter plate and incubated overnight at 4° C. The plate was washed once with blocking/binding buffer (50 mM Tris, pH 7.4, 100 mM NaCl, 2 mM CaCl2, 1 mM MgCl2, 1 mM MnCl2, 1% bovine serum albumin), and then was incubated for additional 2 h at RT The plate was rinsed twice with the same buffer and incubated for 3 h at RT with radiolabeled ligand [^125I]Echistatin (Amersham Pharmacia Biotech) 0.05 nM (0.1 nM for αv β5) in the presence of competing inhibitors. After the incubation, the wells were washed and radioactivity was determined with a gamma-counter (Packard). Non-specific binding of ligand was determined with molar excess (200 nM) of cold echistatin.
(§2) The IC50 values reported in Tables 1 and 2 were calculated as the concentrations of compounds required for 50% inhibition of echistatin binding and were estimated by the Prism GraphPad program. The Ki of the competing ligands were calculated according to the Cheng-Prusoff equation (Cheng Y. C., et al., Biochem. Pharmacol., 1973, 22, 3099). Values are the mean±log standard error of triplicate determinations from two independent experiments.

Another data set deals with αvβ5 receptors (Homo sapiens, UniProt P06756+P18084). Description: Solid-phase binding assay, inhibition of [125I]Echistatin binding to αvβ5 receptors. The method, then:
as §1, §2

Data set [2] relates to A2780 ovarian carcinoma cells. It is filed as cell-based, human. The conditions noted are these: A2780, 1 h of treatment; read-out: IC50 ± SD, antiadhesive effect to vitronectin. As for the experimental part:
(§3) A2780 human ovarian carcinoma and PC3 prostate carcinoma cells were grown in medium culture RPMI 1640 containing 10% fetal bovine serum and 50 μg/ml gentamycin sulfate. Cells were maintained in a 37° C. incubator with saturated humidity and an atmosphere of 95% air and 5% CO2. A2780 tumour cell line expresses high levels of αvβ5 integrin, and PC3 low levels of both integrins.
(§4) In 96-well tissue culture plates, 50 μl/well of a solution of vitronectin (5 μg/ml) were added for 2 h at room temperature. The solutions were removed upsetting the plates. 50 μl/well of a solution 1% BSA were added for 1 h at RT. The plates were washed by addition of 100 μl/well of medium culture RPMI 1640 without fetal calf serum (FCS). The washing was repeated twice. The molecules were added at different concentrations in the range between 0.039 μM and 20 μM. The solutions were prepared by dilution 1:2 in medium culture without FCS. Tumour cells in the flasks were washed in saline solution before to be detached by scraper, by the addition of 5 ml of medium culture without FCS and 1% BSA. Tumour cells were counted after resuspension and added at an appropriate cellular density (40000-50000 cells/well). The plates were incubated for 1 h at 37° C. in humidified incubator with 5% CO2. Then, the solutions were removed upsetting the plates and washed once with 200 μl/well of PBS with Ca^2+ e Mg^2+. Tumour cells were fixed with 100 μl of a solution 4% paraformaldehyde in 0.2 M Sorensen phosphate buffer pH 7.2-7.4 for 10 min at RT The plates were upset and 100 μl of 1% Toluidine Blu solution were added for 10 min at RT The plates were washed twice by immersion in bi-distilled water and then dried at 60° C. in thermostat incubator (Kottermann). 100 μl/well of 1% SDS were added. The plates were kept under stirring for 20 min at RT and were then evaluated by Victor 1420 multilabel counter (Wallac) at 600 nm.
(§5) The IC50 value as parameter to measure the inhibiting effect of the molecules on tumour cell adhesion to vitronectin was evaluated using “ALLFIT” computer program.

In data set [3] the test system is PC3 prostate carcinoma cells. It is filed as cell-based, human. The settings on record: PC3, 1 h of treatment; read-out: IC50 ± SD, antiadhesive effect to vitronectin. As for the experimental part: as §3, §4, §5
The test system of data set [4] is A2780 ovarian carcinoma cells. Put plainly: Cytotoxicity, sulphorodamine B test (A2780). Format: cell-based, human. The settings on record: A2780, 72 h of treatment; read-out: IC50 ± SD, cytotoxicity. As for the experimental part:
To evaluate the effect of the compound on survival cells, the sulphorodamine B test was used. To measure the effects of the compounds on cell growth, PC3 human prostate carcinoma and A2780 human ovarian carcinoma cells were used. A2780 and PC3 tumour cells were grown RPMI 1640 containing 10% fetal bovine serum (GIBCO).
Tumour cells were seeded in 96-well tissue culture plates at approximately 10% confluence and were allowed to attach and recover for at least 24 h. Varying concentrations of the drugs were then added to each well to calculate their IC50 value (the concentration which inhibits the 50% of cell survival). The plates were incubated at 37° C. for 72 h. At the end of the treatment, the plates were washed by removal of the supernatant and addition of PBS 3 times. 200 μl PBS and 50 μl of cold 80% trichloroacetic acid (TCA) were added. The plates were incubated on ice for at least 1 h. TCA was removed and the plates were washed 3 times by immersion in distilled-water and dried on paper and at 40° C. for 5 min. Then 200 μl of 0.4% sulphorodamine B in 1% acetic acid were added. The plates were incubated at RT for further 30 min. Sulphorodamine B was removed, the plates were washed by immersion in 1% acetic acid 3 times, then they were dried on paper and at 40° C. for 5 min. Then 200 μl Tris 10 mM were added, the plates were kept under stirring for 20 min. The cell survival was determined by means of optical density using a Multiskan spectrofluorimeter at 540 nm. The amount of cells killed was calculated as the percentage decrease in sulphorodamine B binding compared with control cultures.
The IC50 values were calculated with the “ALLFIT” program.

Where two headings read alike, the source gives them in different places.

What is called IC50 is the concentration at which inhibition is half-maximal. As usually defined, the Ki is the equilibrium dissociation constant of an inhibitor or competing ligand from its target. Low values mean tighter binding, high ones weaker binding.

αvβ5 receptors, sequence (P06756 31-889 limits assumed): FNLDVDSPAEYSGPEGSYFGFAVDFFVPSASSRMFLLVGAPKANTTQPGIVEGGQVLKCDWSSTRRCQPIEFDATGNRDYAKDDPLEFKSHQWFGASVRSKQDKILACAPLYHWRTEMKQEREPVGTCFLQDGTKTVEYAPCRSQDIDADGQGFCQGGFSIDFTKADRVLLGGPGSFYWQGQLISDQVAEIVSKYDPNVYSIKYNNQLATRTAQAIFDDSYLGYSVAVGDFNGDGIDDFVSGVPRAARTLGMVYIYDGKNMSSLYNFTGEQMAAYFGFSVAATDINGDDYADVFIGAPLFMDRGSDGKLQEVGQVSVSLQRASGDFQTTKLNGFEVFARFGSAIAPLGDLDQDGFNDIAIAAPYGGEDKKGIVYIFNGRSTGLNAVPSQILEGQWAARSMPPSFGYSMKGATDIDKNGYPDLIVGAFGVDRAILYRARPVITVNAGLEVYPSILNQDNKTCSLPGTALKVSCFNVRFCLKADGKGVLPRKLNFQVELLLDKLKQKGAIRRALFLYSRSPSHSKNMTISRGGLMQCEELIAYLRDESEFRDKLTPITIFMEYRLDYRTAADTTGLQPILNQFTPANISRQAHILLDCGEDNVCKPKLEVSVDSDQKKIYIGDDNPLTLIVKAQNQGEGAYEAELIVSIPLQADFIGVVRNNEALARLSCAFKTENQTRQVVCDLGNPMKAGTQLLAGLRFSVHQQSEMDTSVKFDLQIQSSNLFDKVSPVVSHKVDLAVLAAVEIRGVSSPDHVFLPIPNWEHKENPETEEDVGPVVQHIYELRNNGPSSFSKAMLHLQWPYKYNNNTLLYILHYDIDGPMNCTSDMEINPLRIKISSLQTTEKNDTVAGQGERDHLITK
αvβ5 receptors, sequence (P06756 891-1048 partner limits assumed): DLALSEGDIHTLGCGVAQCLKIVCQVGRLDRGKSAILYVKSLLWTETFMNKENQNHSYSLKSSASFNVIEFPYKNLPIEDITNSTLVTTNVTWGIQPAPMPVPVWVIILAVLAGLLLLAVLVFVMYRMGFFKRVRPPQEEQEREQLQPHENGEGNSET
αvβ5 receptors, sequence (P18084 24-799): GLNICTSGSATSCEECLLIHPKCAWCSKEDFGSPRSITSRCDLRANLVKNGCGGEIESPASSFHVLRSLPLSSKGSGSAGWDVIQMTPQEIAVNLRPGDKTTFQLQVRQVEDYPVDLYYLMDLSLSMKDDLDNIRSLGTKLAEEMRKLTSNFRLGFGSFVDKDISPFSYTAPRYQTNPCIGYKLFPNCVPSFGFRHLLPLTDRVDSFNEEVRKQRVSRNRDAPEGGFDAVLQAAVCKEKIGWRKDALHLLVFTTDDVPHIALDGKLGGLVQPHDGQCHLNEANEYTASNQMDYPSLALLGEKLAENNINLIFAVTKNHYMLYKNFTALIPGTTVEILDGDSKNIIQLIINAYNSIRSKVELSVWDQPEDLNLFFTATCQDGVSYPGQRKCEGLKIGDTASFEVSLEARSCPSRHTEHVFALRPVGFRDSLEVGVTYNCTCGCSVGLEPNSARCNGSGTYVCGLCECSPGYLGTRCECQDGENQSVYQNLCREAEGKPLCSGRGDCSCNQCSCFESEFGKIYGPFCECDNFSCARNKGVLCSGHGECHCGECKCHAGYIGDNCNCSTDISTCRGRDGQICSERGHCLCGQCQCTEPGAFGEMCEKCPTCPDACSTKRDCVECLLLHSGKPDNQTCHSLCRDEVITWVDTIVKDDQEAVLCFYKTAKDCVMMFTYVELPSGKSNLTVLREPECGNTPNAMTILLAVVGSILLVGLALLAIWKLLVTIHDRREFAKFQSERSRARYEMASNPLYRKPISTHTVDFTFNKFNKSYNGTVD
αvβ3 receptor, sequence (P06756 31-889 limits assumed): as the sequence (P06756 31-889 limits assumed) above
αvβ3 receptor, sequence (P06756 891-1048 partner limits assumed): as the sequence (P06756 891-1048 partner limits assumed) above
αvβ3 receptor, sequence (P05106 27-788): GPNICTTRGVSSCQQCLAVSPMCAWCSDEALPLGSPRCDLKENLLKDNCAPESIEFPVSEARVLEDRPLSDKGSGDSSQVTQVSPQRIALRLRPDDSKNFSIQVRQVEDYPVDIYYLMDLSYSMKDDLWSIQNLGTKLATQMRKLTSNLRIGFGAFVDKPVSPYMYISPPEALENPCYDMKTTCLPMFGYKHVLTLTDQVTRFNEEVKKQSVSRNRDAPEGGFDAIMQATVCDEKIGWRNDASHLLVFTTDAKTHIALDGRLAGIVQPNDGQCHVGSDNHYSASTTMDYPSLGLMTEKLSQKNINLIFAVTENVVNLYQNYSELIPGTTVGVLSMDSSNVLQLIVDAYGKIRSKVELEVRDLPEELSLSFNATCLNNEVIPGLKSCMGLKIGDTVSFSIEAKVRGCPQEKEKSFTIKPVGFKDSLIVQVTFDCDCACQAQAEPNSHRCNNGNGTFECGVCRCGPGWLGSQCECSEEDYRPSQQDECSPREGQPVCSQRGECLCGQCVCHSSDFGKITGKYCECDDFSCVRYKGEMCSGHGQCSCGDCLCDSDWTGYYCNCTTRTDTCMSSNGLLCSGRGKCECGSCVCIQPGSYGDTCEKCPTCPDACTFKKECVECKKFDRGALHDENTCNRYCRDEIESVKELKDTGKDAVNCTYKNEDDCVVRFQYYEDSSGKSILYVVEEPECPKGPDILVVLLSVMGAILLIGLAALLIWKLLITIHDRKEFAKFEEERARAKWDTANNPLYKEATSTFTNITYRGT

In the case of `CC[C@@]1(O)C(=O)OCc2c1cc1n(c2=O)Cc2c-1nc1ccccc1c2C=NOCCNC(=O)OCc1ccc(NC(=O)[C@H](CCCNC(N)=O)NC(=O)[C@H](C)NC(=O)COCCOCCOCC(=O)NCc2ccc(C[C@@H]3NC(=O)[C@@H](Cc4ccccc4)NC(=O)[C@H](CC(=O)O)NC(=O)CNC(=O)[C@H](CCCNC(=N)N)NC3=O)cc2)cc1` [ST3833], the “BWL % (maximum body weight loss)” value in data set [1] (56 mg/10 ml/kg i.v. q4dx4) stood at 0%. In addition, in data set [1] (56 mg/10 ml/kg i.v. q4dx4), the “Lethal toxicity (dead/treated animals)” value is reported as 0/11. In addition, the “MST (median survival time)” value in data set [1] (56 mg/10 ml/kg i.v. q4dx4) is reported as 58 days. Moreover, the “Incidence of osteolytic lesions (mice with metastases)” value in data set [1] (56 mg/10 ml/kg i.v. q4dx4, 30 days after tumour injection) is listed as 5/11. For the same compound, the tolerability result in data set [1] (56 mg/kg iv (q4dx4), no reduction of body weight or lethal toxicity) is listed as “well tolerated”. The “incidence of osteolytic lesions, % of mice” value in data set [1] (56 mg/kg iv q4dx4, vehicle-treated group 91%) is reported as 45%. The IC50 on αvβ3 receptor turned out to be 78.4 ± 1.5 nM; at αvβ5 receptors, 87.8 ± 1.21 nM; in data set [2] it was 900 ± 50 nM; in data set [3], 2100 ± 200 nM; in data set [4], 95 ± 20 nM. Also, the Ki worked out at 61 nM at αvβ3 receptor and 68.2 nM at αvβ5 receptors.
